Assay results from ChEMBL document CHEMBL3639008, “Pyridopyrazines as highly selective ras-Raf-Mek-Erk signal transduction pathway inhibitors” (2014).

Target: Mitogen-activated protein kinase 1 (Homo sapiens, UniProt P28482)
Test: Cell-Free Kinase Assays: The inhibitory effect of the compounds according to the invention was tested on various serine/threonine, tyrosine and lipid kinases in enzymatic assays. Recombinant human kinases such as, for example, Erk2, were used in this case, partly as full-length kinases, partly as shortened fragments, but at least consisting of the functional kinase domains. The commercial kinase proteins (Proqinase, Upstate) were used as recombinant fusion proteins with GST (glutathion-S-transferase) or His-Tag. Depending on the type of substrate, the various kinase reactions were quantified by means of suitable ALPHA beads (Perkin-Elmer). MAPK-ALPHAs (e.g. Erk2): the test substance, 0.625 ng Erk2 (#14-173, Upstate), 10 uM ATP and 15 nM biotinylated MBP (myelin basic protein) substrate were incubated on a 384-well Optiplate (Perkin-Elmer) in a volume of 15 ul for 1 h in 25 mM Tris, 10 mM MgCl2, 0.1% Tween-20, 100 uM NaVO4, 2 mM DTT at pH 7.5.

Chain of Mitogen-activated protein kinase 1 (P28482 whole entry, the tested form may be a part): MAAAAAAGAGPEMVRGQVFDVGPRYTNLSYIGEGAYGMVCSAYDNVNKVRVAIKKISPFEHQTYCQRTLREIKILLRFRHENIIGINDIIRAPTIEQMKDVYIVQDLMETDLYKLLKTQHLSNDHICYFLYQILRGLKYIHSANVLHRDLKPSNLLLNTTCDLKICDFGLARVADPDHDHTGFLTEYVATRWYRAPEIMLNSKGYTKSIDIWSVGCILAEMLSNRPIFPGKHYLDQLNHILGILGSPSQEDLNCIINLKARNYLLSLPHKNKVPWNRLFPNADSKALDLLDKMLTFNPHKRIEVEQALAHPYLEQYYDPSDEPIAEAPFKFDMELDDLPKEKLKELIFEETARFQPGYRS

IC50: 2 nM
SMILES: O=C(NCCCCc1ccccc1)Nc1ccc2ncc(-c3cnn(CC(F)F)c3)nc2n1
